The values that follow come from the supplement of paper PMC10307832.

Common to all, as to experiment: relative viability (nuclei count vs DMSO), 5 days (fraction); higher = more cells survive
Compound in the test “Shikonin + OSI-027”: CC(C)=CC[C@@H](O)C1=CC(=O)c2c(O)ccc(O)c2C1=O [Shikonin] + COc1cccc2cc(-c3nc([C@H]4CC[C@H](C(=O)O)CC4)n4ncnc(N)c34)[nH]c12 [OSI-027] (partner 0.5 µM)
In short, it runs like this: (§1)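 The day after seeding in 1536-well plates, lung cancer cell lines were treated by pin tool with a single drug, or with a fixed anchor-drug dose together with five library-drug doses (not always all listed) in √10 steps. After 5 days, a combined fix-and-stain solution (final 0.05% Triton X-100, 1% formaldehyde, 1 ug/ml Hoechst) was added. Nuclei counted on 4× images gave relative viability as treated counts over vehicle counts, reported as the median of duplicate plates.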

Compound in the test “Shikonin + Tozasertib”: CC(C)=CC[C@@H](O)C1=CC(=O)c2c(O)ccc(O)c2C1=O [Shikonin] + Cc1cc(Nc2cc(N3CCN(C)CC3)nc(Sc3ccc(NC(=O)C4CC4)cc3)n2)n[nH]1 [Tozasertib] (partner 0.1 µM)
In short, it runs like this:
as §1

Compound in the test “Shikonin + AZD7762”: CC(C)=CC[C@@H](O)C1=CC(=O)c2c(O)ccc(O)c2C1=O [Shikonin] + NC(=O)Nc1cc(-c2cccc(F)c2)sc1C(=O)N[C@H]1CCCNC1 [AZD7762] (partner 0.2 µM)
In short, it runs like this:
as §1

Compound in test [1]: CC(C)N(CCCNC(=O)Nc1ccc(C(C)(C)C)cc1)C[C@H]1O[C@@H](n2ccc3c(N)ncnc32)[C@H](O)[C@@H]1O + Cc1nc(NC(=O)N2CCC[C@H]2C(N)=O)sc1-c1ccnc(C(C)(C)C(F)(F)F)c1 [Alpelisib] (partner 2 µM)
In short, it runs like this: as §1

On to NCI-H1648, for which the relative viability with Shikonin + OSI-027 (first compound 0.01 µM) turned out to be 0.253; with Shikonin + OSI-027 (first compound 0.1 µM), 0.285; in the test with Shikonin + OSI-027 (first compound 0.3162 µM) it was 0.285; with Shikonin + OSI-027 (first compound 1 µM) it was 0.26; in the test with Shikonin + Tozasertib (first compound 0.01 µM), 0.537; with Shikonin + Tozasertib (first compound 0.1 µM), 0.404. For the same cell line, the relative viability with Shikonin + Tozasertib (first compound 0.3162 µM) was determined as 0.471; in the test with Shikonin + Tozasertib (first compound 1 µM), 0.408; with Shikonin + AZD7762 (first compound 0.01 µM), 0.829; with Shikonin + AZD7762 (first compound 0.3162 µM) it was 0.825; with Shikonin + AZD7762 (first compound 1 µM), 0.457.

SK-MES-1: the relative viability was 0.694 with Shikonin + OSI-027 (first compound 0.01 µM); 0.493 with Shikonin + OSI-027 (first compound 0.1 µM); 0.742 with Shikonin + OSI-027 (first compound 0.3162 µM); 0.519 in the test with Shikonin + OSI-027 (first compound 1 µM); 1.1 with Shikonin + Tozasertib (first compound 0.01 µM); 1.05 with Shikonin + Tozasertib (first compound 0.1 µM). Besides, the relative viability with Shikonin + Tozasertib (first compound 0.3162 µM) worked out at 0.998; in the test with Shikonin + Tozasertib (first compound 1 µM), 0.857; in test [1] (first compound 0.08 µM) it was 0.992; in test [1] (first compound 0.253 µM), 0.897; in test [1] (first compound 0.8 µM), 0.754; in test [1] (first compound 2.53 µM), 0.945. Also, the relative viability in test [1] (first compound 8 µM) was 0.838.

For NCI-H520, the relative viability turned out to be 0.288 with Shikonin + OSI-027 (first compound 0.01 µM); 0.243 with Shikonin + OSI-027 (first compound 0.1 µM); 0.209 in the test with Shikonin + OSI-027 (first compound 0.3162 µM); 0.304 in the test with Shikonin + OSI-027 (first compound 1 µM); 0.49 in the test with Shikonin + Tozasertib (first compound 0.01 µM); 0.436 with Shikonin + Tozasertib (first compound 0.1 µM). Besides, the relative viability with Shikonin + Tozasertib (first compound 0.3162 µM) was determined as 0.475; with Shikonin + Tozasertib (first compound 1 µM), 0.433; in test [1] (first compound 0.08 µM), 0.796; in test [1] (first compound 0.253 µM) it was 0.879; in test [1] (first compound 0.8 µM) it was 0.758; in test [1] (first compound 2.53 µM), 0.789. Moreover, the relative viability in test [1] (first compound 8 µM) is 0.861.

Regarding HCC-366, the relative viability in the test with Shikonin + OSI-027 (first compound 0.01 µM) was determined as 1.07; in the test with Shikonin + OSI-027 (first compound 0.1 µM), 1.27; with Shikonin + OSI-027 (first compound 0.3162 µM), 1.14; with Shikonin + OSI-027 (first compound 1 µM), 0.859; in the test with Shikonin + Tozasertib (first compound 0.01 µM) it was 0.118; with Shikonin + Tozasertib (first compound 0.1 µM) it was 0.103. The relative viability came out at 0.166 with Shikonin + Tozasertib (first compound 0.3162 µM); 0.114 with Shikonin + Tozasertib (first compound 1 µM); 0.281 with Shikonin + AZD7762 (first compound 0.01 µM); 0.25 with Shikonin + AZD7762 (first compound 0.1 µM); 0.308 in the test with Shikonin + AZD7762 (first compound 0.3162 µM); 0.269 in the test with Shikonin + AZD7762 (first compound 1 µM). For the same cell line, the relative viability in test [1] (first compound 0.08 µM) was found to be 0.394; in test [1] (first compound 0.253 µM), 0.442; in test [1] (first compound 0.8 µM), 0.366; in test [1] (first compound 2.53 µM) it was 0.367; in test [1] (first compound 8 µM), 0.41.

Turning to NCI-H661, the relative viability worked out at 0.685 in the test with Shikonin + OSI-027 (first compound 0.01 µM); 0.774 in the test with Shikonin + OSI-027 (first compound 0.1 µM); 0.782 with Shikonin + OSI-027 (first compound 0.3162 µM); 0.842 with Shikonin + OSI-027 (first compound 1 µM); 0.371 with Shikonin + Tozasertib (first compound 0.01 µM); 0.359 in the test with Shikonin + Tozasertib (first compound 0.1 µM). Moreover, the relative viability in the test with Shikonin + Tozasertib (first compound 0.3162 µM) was 0.355; in the test with Shikonin + Tozasertib (first compound 1 µM), 0.37; in test [1] (first compound 0.08 µM), 0.692; in test [1] (first compound 0.253 µM) it was 0.61; in test [1] (first compound 0.8 µM), 1.03; in test [1] (first compound 2.53 µM) it was 0.63. Besides, the relative viability in test [1] (first compound 8 µM) was 0.645.

On to SW 1573, for which the relative viability worked out at 0.564 with Shikonin + OSI-027 (first compound 0.01 µM); 0.518 with Shikonin + OSI-027 (first compound 0.1 µM); 0.443 in the test with Shikonin + OSI-027 (first compound 0.3162 µM); 0.258 in the test with Shikonin + OSI-027 (first compound 1 µM); 0.194 in the test with Shikonin + Tozasertib (first compound 0.01 µM); 0.24 with Shikonin + Tozasertib (first compound 0.1 µM). Besides, the relative viability with Shikonin + Tozasertib (first compound 0.3162 µM) came to 0.188; in the test with Shikonin + Tozasertib (first compound 1 µM), 0.0571; in test [1] (first compound 0.08 µM), 0.771; in test [1] (first compound 0.253 µM) it was 0.708; in test [1] (first compound 0.8 µM) it was 0.734; in test [1] (first compound 2.53 µM), 0.949. Further, the relative viability in test [1] (first compound 8 µM) is 0.667.

As for NCI-H1703, the relative viability was determined as 0.125 with Shikonin + AZD7762 (first compound 0.1 µM); 0.124 in the test with Shikonin + AZD7762 (first compound 0.3162 µM); 0.113 with Shikonin + AZD7762 (first compound 1 µM); 0.309 in test [1] (first compound 0.08 µM); 0.322 in test [1] (first compound 0.253 µM); 0.304 in test [1] (first compound 0.8 µM). The results for the relative viability in test [1] (first compound 2.53 µM) and in test [1] (first compound 8 µM) were 0.439 and 0.318, respectively.

For the cell line NCI-H1792, the relative viability in the test with Shikonin + OSI-027 (first compound 0.01 µM) stood at 0.7; in the test with Shikonin + OSI-027 (first compound 0.1 µM) it was 0.63; in the test with Shikonin + OSI-027 (first compound 0.3162 µM), 0.853; with Shikonin + OSI-027 (first compound 1 µM), 0.805; with Shikonin + AZD7762 (first compound 0.01 µM) it was 0.663; with Shikonin + AZD7762 (first compound 0.1 µM), 0.618. Besides, the relative viability was found to be 0.604 in the test with Shikonin + AZD7762 (first compound 0.3162 µM); 0.694 with Shikonin + AZD7762 (first compound 1 µM); 0.671 in test [1] (first compound 0.08 µM); 0.497 in test [1] (first compound 0.253 µM); 0.688 in test [1] (first compound 0.8 µM); 0.696 in test [1] (first compound 2.53 µM). The relative viability in test [1] (first compound 8 µM) amounted to 0.668.

Calu-6: the relative viability in test [1] (first compound 0.08 µM) was determined as 0.987; in test [1] (first compound 0.253 µM), 1.01; in test [1] (first compound 0.8 µM), 1.02; in test [1] (first compound 2.53 µM) it was 1.09; in test [1] (first compound 8 µM), 0.984.

On to SK-LU-1, for which the relative viability with Shikonin + OSI-027 (first compound 0.01 µM) was found to be 0.341; with Shikonin + OSI-027 (first compound 0.1 µM), 0.371; with Shikonin + OSI-027 (first compound 0.3162 µM), 0.343; in the test with Shikonin + OSI-027 (first compound 1 µM) it was 0.352; with Shikonin + Tozasertib (first compound 0.01 µM), 0.317; in the test with Shikonin + Tozasertib (first compound 0.1 µM), 0.338. The relative viability in the test with Shikonin + Tozasertib (first compound 0.3162 µM) amounted to 0.351; in the test with Shikonin + Tozasertib (first compound 1 µM) it was 0.3; in test [1] (first compound 0.08 µM), 1.22; in test [1] (first compound 0.253 µM) it was 1.15; in test [1] (first compound 0.8 µM), 1.28; in test [1] (first compound 2.53 µM), 1.16. Besides, the relative viability in test [1] (first compound 8 µM) turned out to be 1.01.

Turning to NCI-H2228, the relative viability with Shikonin + OSI-027 (first compound 0.01 µM) came to 0.698; with Shikonin + OSI-027 (first compound 0.1 µM), 0.67; in the test with Shikonin + OSI-027 (first compound 0.3162 µM), 0.615; with Shikonin + OSI-027 (first compound 1 µM), 0.639; with Shikonin + Tozasertib (first compound 0.01 µM) it was 0.177; with Shikonin + Tozasertib (first compound 0.1 µM) it was 0.273. The relative viability stood at 0.234 in the test with Shikonin + Tozasertib (first compound 0.3162 µM); 0.212 in the test with Shikonin + Tozasertib (first compound 1 µM); 0.782 in test [1] (first compound 0.08 µM); 0.796 in test [1] (first compound 0.8 µM); 0.76 in test [1] (first compound 2.53 µM); 0.745 in test [1] (first compound 8 µM).

Turning to NCI-H2023, the relative viability in the test with Shikonin + OSI-027 (first compound 0.01 µM) came to 0.394; with Shikonin + OSI-027 (first compound 0.1 µM), 0.367; with Shikonin + OSI-027 (first compound 0.3162 µM), 0.443; with Shikonin + OSI-027 (first compound 1 µM) it was 0.408; in the test with Shikonin + Tozasertib (first compound 0.01 µM) it was 0.477; with Shikonin + Tozasertib (first compound 0.1 µM), 0.453. In addition, the relative viability amounted to 0.383 with Shikonin + Tozasertib (first compound 0.3162 µM); 0.412 with Shikonin + Tozasertib (first compound 1 µM); 0.532 in test [1] (first compound 0.08 µM); 0.619 in test [1] (first compound 0.253 µM); 0.619 in test [1] (first compound 0.8 µM); 0.68 in test [1] (first compound 2.53 µM). Besides, the relative viability in test [1] (first compound 8 µM) amounted to 0.622.
